Data reported in ChEMBL document CHEMBL1909046, “DrugMatrix in vitro pharmacology data”.

Assays:
[1] = target: Beta-1 adrenergic receptor (Homo sapiens, UniProt P08588); assay: DRUGMATRIX: Adrenergic beta1 radioligand binding (ligand: [125I] Cyanopindolol); type: cell membranes, CHO-K1, Membrane; conditions: cho-k1; Not Active = under 50% inhibition at 10 µM
[2] = DRUGMATRIX: Calcium Channel Type L, Benzothiazepine radioligand binding (ligand: [3H] Diltiazem); type: cell membranes, Rattus norvegicus, Wistar, Brain, Membrane; conditions: Not Active = under 50% inhibition at 10 µM
[3] = target: C-C chemokine receptor type 2 (Homo sapiens, UniProt P41597); type: cell membranes, Membrane; conditions: cho-k1; note: in other assays of this panel Not Active means under 50% inhibition at 10 µM
Chain of C-C chemokine receptor type 2 (P41597 whole entry): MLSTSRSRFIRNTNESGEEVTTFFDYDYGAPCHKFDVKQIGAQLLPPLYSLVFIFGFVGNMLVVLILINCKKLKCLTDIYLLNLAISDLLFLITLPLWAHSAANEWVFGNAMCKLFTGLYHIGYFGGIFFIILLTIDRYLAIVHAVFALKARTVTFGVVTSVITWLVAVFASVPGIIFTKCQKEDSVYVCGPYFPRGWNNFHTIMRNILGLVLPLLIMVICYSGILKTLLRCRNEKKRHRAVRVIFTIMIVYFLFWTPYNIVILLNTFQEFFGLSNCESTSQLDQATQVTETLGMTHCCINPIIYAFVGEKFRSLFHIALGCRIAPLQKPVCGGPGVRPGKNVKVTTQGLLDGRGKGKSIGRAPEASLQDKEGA

[4] = target: Prostaglandin G/H synthase 1 (Homo sapiens, UniProt P23219); assay: biochemical; type: tissue-based, Platelet; conditions: platelet;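 note: inhibition of COX-1 enzyme activity, with arachidonic acid supplied as substrate; in other assays of this panel Not Active means under 50% inhibition at 10 µM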
Chain of Prostaglandin G/H synthase 1 (P23219 whole entry): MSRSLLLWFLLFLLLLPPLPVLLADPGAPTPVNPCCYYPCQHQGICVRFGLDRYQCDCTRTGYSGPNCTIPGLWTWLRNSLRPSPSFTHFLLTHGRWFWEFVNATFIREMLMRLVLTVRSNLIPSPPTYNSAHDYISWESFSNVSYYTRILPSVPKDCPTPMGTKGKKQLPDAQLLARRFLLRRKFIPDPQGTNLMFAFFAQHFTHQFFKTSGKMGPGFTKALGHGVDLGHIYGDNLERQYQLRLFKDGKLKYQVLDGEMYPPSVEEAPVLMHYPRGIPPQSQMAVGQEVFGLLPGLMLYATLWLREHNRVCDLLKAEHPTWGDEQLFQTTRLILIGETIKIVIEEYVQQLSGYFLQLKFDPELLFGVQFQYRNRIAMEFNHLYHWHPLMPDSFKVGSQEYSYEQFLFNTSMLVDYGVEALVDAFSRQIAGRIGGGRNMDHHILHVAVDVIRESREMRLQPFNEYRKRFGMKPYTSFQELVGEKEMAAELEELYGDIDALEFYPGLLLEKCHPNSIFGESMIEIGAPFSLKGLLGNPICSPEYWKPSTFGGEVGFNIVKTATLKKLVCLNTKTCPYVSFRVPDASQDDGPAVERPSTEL

Melanocortin receptor 3 = Melanocortin receptor 3 (Homo sapiens, UniProt P41968); type: cell membranes, Membrane; conditions: hek293; note: in other assays of this panel Not Active means under 50% inhibition at 10 µM
Chain of Melanocortin receptor 3 (P41968 whole entry): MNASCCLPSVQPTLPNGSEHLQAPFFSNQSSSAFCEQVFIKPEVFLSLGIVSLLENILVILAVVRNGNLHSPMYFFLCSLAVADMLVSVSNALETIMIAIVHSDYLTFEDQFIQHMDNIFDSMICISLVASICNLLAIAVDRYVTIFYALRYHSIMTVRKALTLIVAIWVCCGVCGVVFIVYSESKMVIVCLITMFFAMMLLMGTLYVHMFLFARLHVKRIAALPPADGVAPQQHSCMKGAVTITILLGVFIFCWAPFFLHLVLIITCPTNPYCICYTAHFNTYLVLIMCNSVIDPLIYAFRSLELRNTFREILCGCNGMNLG

[5] = target: T1, Neuropeptide Y receptor type 1 (Homo sapiens, UniProt P25929); type: cell membranes, Membrane; conditions: sk-n-mc; note: in other assays of this panel Not Active means under 50% inhibition at 10 µM
T1 sequence (P25929 whole entry): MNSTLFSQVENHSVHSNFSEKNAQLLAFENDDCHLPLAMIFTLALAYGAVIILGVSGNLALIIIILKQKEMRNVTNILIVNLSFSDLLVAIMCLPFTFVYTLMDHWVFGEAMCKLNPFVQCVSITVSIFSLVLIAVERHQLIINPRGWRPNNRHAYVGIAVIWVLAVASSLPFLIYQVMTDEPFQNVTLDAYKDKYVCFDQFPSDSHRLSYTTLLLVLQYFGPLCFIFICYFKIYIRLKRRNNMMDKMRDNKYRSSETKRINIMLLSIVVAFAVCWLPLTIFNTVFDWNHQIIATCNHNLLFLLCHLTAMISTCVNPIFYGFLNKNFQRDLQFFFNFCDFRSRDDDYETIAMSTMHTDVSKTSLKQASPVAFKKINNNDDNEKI

Chain of Beta-1 adrenergic receptor (P08588 whole entry): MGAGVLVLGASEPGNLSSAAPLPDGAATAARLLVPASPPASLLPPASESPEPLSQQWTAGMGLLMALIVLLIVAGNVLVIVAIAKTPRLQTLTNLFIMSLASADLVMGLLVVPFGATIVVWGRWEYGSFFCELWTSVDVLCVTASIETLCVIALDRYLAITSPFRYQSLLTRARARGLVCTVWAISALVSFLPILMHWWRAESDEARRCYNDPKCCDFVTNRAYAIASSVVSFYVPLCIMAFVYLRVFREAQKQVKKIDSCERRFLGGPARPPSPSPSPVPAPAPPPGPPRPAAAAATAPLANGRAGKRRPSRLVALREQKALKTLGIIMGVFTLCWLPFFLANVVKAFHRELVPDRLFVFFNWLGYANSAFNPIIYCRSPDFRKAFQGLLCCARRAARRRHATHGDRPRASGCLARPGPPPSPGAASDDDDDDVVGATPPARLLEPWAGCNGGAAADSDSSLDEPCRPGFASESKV

CC(=O)OCC(=O)[C@@]12OC(C)(C)O[C@@H]1C[C@H]1[C@@H]3C[C@H](F)C4=CC(=O)C=C[C@]4(C)[C@@]3(F)[C@@H](O)C[C@@]12C [FLUOCINONIDE]
Not Active: IC50 [1] | IC50 [2] | Ki [2] | IC50 [3] | IC50 [4] | IC50 (Melanocortin receptor 3) | IC50 [5]

O=C(O)P(=O)(O)O [FOSCARNET]
Not Active: IC50 [1] | IC50 [2] | Ki [2] | IC50 [3] | IC50 [4] | IC50 (Melanocortin receptor 3) | IC50 [5]

Cc1ccc(C)c(OCCCC(C)(C)C(=O)O)c1 [GEMFIBROZIL]
Not Active: IC50 [1] | IC50 [2] | Ki [2] | IC50 [3] | IC50 [4] | IC50 (Melanocortin receptor 3) | IC50 [5]

O=c1c(-c2ccc(O)cc2)coc2cc(O)cc(O)c12 [GENISTEIN]
Not Active: IC50 [1] | IC50 [2] | Ki [2] | IC50 [3] | IC50 [4] | IC50 (Melanocortin receptor 3) | IC50 [5]

CCC1=C(C)CN(C(=O)NCCc2ccc(S(=O)(=O)NC(=O)N[C@H]3CC[C@H](C)CC3)cc2)C1=O [GLIMEPIRIDE]
Not Active: IC50 [1] | IC50 [2] | Ki [2] | IC50 [3] | IC50 [4] | IC50 (Melanocortin receptor 3) | IC50 [5]

Nc1cc(-c2ccncc2)c[nH]c1=O [INAMRINONE]
Not Active: IC50 [1] | IC50 [2] | Ki [2] | IC50 [3] | IC50 [4] | IC50 (Melanocortin receptor 3) | IC50 [5]

CCCCC1=NC2(CCCC2)C(=O)N1Cc1ccc(-c2ccccc2-c2nnn[nH]2)cc1 [IRBESARTAN]
Not Active: IC50 [1] | IC50 [2] | Ki [2] | IC50 [3] | IC50 [4] | IC50 (Melanocortin receptor 3) | IC50 [5]

N[C@@H](Cn1ccc(=O)c(O)c1)C(=O)O [L-MIMOSINE]
Not Active: IC50 [1] | IC50 [2] | Ki [2] | IC50 [3] | IC50 [4] | IC50 (Melanocortin receptor 3) | IC50 [5]

C[N+](C)(C)C[C@H](O)CC(=O)[O-] [LEVOCARNITINE]
Not Active: IC50 [1] | IC50 [2] | Ki [2] | IC50 [3] | IC50 [4] | IC50 (Melanocortin receptor 3) | IC50 [5]

C[C@H]1COc2c(N3CCN(C)CC3)c(F)cc3c(=O)c(C(=O)O)cn1c23.C[C@H]1COc2c(N3CCN(C)CC3)c(F)cc3c(=O)c(C(=O)O)cn1c23.O [LEVOFLOXACIN]
Not Active: IC50 [1] | IC50 [2] | Ki [2] | IC50 [3] | IC50 [4] | IC50 (Melanocortin receptor 3) | IC50 [5]

CCn1cc(C(=O)O)c(=O)c2cc(F)c(N3CCNC(C)C3)c(F)c21 (stereo not drawn) [LOMEFLOXACIN]
Not Active: IC50 [1] | IC50 [2] | Ki [2] | IC50 [3] | IC50 [4] | IC50 (Melanocortin receptor 3) | IC50 [5]

CN1CCCC(CN2c3ccccc3Sc3ccccc32)C1 (stereo not drawn) [MEPAZINE]
Not Active: IC50 [1] | IC50 [2] | Ki [2] | IC50 [3] | IC50 [4] | IC50 (Melanocortin receptor 3) | IC50 [5]

Cc1cccc(C)c1NC(=O)C1CCCCN1C (stereo not drawn) [MEPIVACAINE]
Not Active: IC50 [1] | IC50 [2] | Ki [2] | IC50 [3] | IC50 [4] | IC50 (Melanocortin receptor 3) | IC50 [5]

CN(C)C(=N)NC(=N)N [METFORMIN]
Not Active: IC50 [1] | IC50 [2] | Ki [2] | IC50 [3] | IC50 [4] | IC50 (Melanocortin receptor 3) | IC50 [5]

CC(C)(C)NCC(O)COc1cccc2c1CC(O)C(O)C2 (stereo not drawn) [NADOLOL]
Not Active: IC50 [1] | IC50 [2] | Ki [2] | IC50 [3] | IC50 [4] | IC50 (Melanocortin receptor 3) | IC50 [5]

C[C@]12CC[C@H]3[C@@H](CCC4=CC(=O)CC[C@@H]43)[C@@H]1CC[C@@H]2O [NANDROLONE]
Not Active: IC50 [1] | IC50 [2] | Ki [2] | IC50 [3] | IC50 [4] | IC50 (Melanocortin receptor 3) | IC50 [5]

C[C@@H]1C/C=C/C=C/C=C/C=C/[C@H](O[C@@H]2O[C@H](C)[C@@H](O)[C@H](N)[C@@H]2O)C[C@@H]2O[C@](O)(C[C@@H](O)C[C@H]3O[C@@H]3/C=C/C(=O)O1)C[C@H](O)[C@H]2C(=O)O [NATAMYCIN]
Not Active: IC50 [1] | IC50 [2] | Ki [2] | IC50 [3] | IC50 [4] | IC50 (Melanocortin receptor 3) | IC50 [5]

CN(C)C(=O)Oc1cccc([N+](C)(C)C)c1.[Br-] [NEOSTIGMINE BROMIDE]
Not Active: IC50 [1] | IC50 [2] | Ki [2] | IC50 [3] | IC50 [4] | IC50 (Melanocortin receptor 3) | IC50 [5]

NC(=O)c1cccnc1 [NIACINAMIDE]
Not Active: IC50 [1] | IC50 [2] | Ki [2] | IC50 [3] | IC50 [4] | IC50 (Melanocortin receptor 3) | IC50 [5]

CN1C(=O)CN=C(c2ccccc2)c2cc([N+](=O)[O-])ccc21 [NIMETAZEPAM]
Not Active: IC50 [1] | IC50 [2] | Ki [2] | IC50 [3] | IC50 [4] | IC50 (Melanocortin receptor 3) | IC50 [5]

COc1ccc2c(c1OC)C(=O)O[C@@H]2[C@H]1c2c(cc3c(c2OC)OCO3)CCN1C [NOSCAPINE]
Not Active: IC50 [1] | IC50 [2] | Ki [2] | IC50 [3] | IC50 [4] | IC50 (Melanocortin receptor 3) | IC50 [5]

C[C@@H]1O[C@@H](O[C@H]2C[C@@H](O)[C@]3(CO)[C@H]4[C@H](O)C[C@]5(C)[C@@H](C6=CC(=O)OC6)CC[C@]5(O)[C@@H]4CC[C@]3(O)C2)[C@H](O)[C@H](O)[C@H]1O [OUABAIN]
Not Active: IC50 [1] | IC50 [2] | Ki [2] | IC50 [3] | IC50 [4] | IC50 (Melanocortin receptor 3) | IC50 [5]

NC(=O)N1c2ccccc2CC(=O)c2ccccc21 [OXCARBAZEPINE]
Not Active: IC50 [1] | IC50 [2] | Ki [2] | IC50 [3] | IC50 [4] | IC50 (Melanocortin receptor 3) | IC50 [5]

COc1ccnc(C[S+]([O-])c2nc3ccc(OC(F)F)cc3[nH]2)c1OC (stereo not drawn) [PANTOPRAZOLE]
Not Active: IC50 [1] | IC50 [2] | Ki [2] | IC50 [3] | IC50 [4] | IC50 (Melanocortin receptor 3) | IC50 [5]
